Data set [1] can be described thus: Solubility of nonionic organic compound in water. In kind it is physicochemical. To be noted: for Solubility: in 100 g of water at 25° C.; for solubility in 100 g of water: 25° C. The text has this: (3) Method of Measuring Solubility of Nonionic Organic Compound
Data set [2] in a line: Surface tension of water containing nonionic organic compound. In kind it is physicochemical. Particulars: 25° C.; for Surface tension: water containing 0.001% by weight of the nonionic organic compound. The text has this: (4) Method of Measuring Surface Tension of Water Containing Nonionic Organic Compound

`CCCCC(O)CO` (stereo not drawn) [1,2-hexanediol, reference compound]: the Solubility entry in data set [1] is given as “≧6 g/100 g”. The Surface tension in data set [2] was found to be 71.2 mN/m.

Turning to `CCCCC(CC)COCC(O)CO` (stereo not drawn) [2-ethylhexyl monoglyceryl ether], in data set [1], the “solubility in 100 g of water” value was 0.15 g and the Solubility is 0.15 g/100 g. Besides, in data set [2], the “surface tension of water containing 0.001% by weight of the nonionic organic compound” value is 62 mN/m and the Surface tension is given as 62 mN/m.

On to `CC(C)CCCCCCCOCC(O)CO` (stereo not drawn) [Isodecyl monoglyceryl ether], for which, in data set [1], the “solubility in 100 g of water” value was 0.05 g and the Solubility was 0.05 g/100 g. Moreover, in data set [2], the “surface tension of water containing 0.001% by weight of the nonionic organic compound” value came out at 57.8 mN/m and the Surface tension turned out to be 57.8 mN/m.

For the compound `CCCCCCCCCCC(O)CO` (stereo not drawn) [1,2-dodecanediol], in data set [1], the “solubility in 100 g of water” value worked out at 0.001 g and the Solubility came to 0.001 g/100 g. Besides, in data set [2], the “surface tension of water containing 0.001% by weight of the nonionic organic compound” value amounted to 47.1 mN/m and the Surface tension is recorded as 47.1 mN/m.

In the case of `OCCCCCCCCO` [1,8-octanediol, reference compound], in data set [1], the Solubility stood at 1 g/100 g. Moreover, in data set [2], the Surface tension is recorded as 70.7 mN/m.

As to `CCCCCCC(O)CO` (stereo not drawn) [1,2-octanediol], in data set [1], the “solubility in 100 g of water” value is 0.20 g and the Solubility is on record as 0.2 g/100 g. In addition, in data set [2], the “surface tension of water containing 0.001% by weight of the nonionic organic compound” value amounted to 65 mN/m and the Surface tension came out at 65 mN/m.

Decanoic acid monogriceride: in data set [2], the “surface tension of water containing 0.001% by weight of the nonionic organic compound” value was determined as 65 mN/m and the Surface tension amounted to 65 mN/m.

Regarding Lauric acid monogriceride, in data set [1], the “solubility in 100 g of water” value is listed as 0.005 g and the Solubility worked out at 0.12 g/100 g. In data set [2], the “surface tension of water containing 0.001% by weight of the nonionic organic compound” value came out at 63 mN/m and the Surface tension was determined as 63 mN/m.

As for `CCCCCCCCC(O)CO` (stereo not drawn) [1,2-decanediol], in data set [1], the “solubility in 100 g of water” value was found to be 0.055 g and the Solubility turned out to be 0.055 g/100 g. Also, in data set [2], the “surface tension of water containing 0.001% by weight of the nonionic organic compound” value was found to be 55 mN/m and the Surface tension is listed as 55 mN/m.

The values are drawn from US8013053B2, “Water-based inks for ink-jet printing” (Kao Corporation, priority 2005, dated 2011).
